Series [1] concerns the target T1, TG2 (Homo sapiens, UniProt P21980).
T1 sequence (P21980 1-687): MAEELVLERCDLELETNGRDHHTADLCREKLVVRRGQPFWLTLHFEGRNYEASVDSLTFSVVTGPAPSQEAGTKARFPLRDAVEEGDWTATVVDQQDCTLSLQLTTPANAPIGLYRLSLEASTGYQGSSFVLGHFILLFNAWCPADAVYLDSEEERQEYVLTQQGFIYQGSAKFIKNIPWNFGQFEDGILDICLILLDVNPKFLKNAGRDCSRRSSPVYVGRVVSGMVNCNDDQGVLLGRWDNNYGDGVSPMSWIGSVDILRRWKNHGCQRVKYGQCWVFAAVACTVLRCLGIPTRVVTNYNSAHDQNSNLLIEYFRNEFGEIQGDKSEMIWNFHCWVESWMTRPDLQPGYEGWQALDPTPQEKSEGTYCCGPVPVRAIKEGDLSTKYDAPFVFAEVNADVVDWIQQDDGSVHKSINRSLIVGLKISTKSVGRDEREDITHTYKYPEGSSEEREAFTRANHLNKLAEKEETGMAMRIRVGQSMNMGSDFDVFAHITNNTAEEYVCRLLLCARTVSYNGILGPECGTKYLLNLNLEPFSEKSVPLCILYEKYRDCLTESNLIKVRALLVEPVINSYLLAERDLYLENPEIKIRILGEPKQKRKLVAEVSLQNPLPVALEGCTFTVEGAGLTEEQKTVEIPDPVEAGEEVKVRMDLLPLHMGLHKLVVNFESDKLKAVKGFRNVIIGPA
As to conditions: cited from earlier work.

Series [2] has as its target T2, TG2 (Mus musculus, UniProt P21981).
T2 construct: host or cells: mice (in vivo)
T2 sequence (P21981 1-686): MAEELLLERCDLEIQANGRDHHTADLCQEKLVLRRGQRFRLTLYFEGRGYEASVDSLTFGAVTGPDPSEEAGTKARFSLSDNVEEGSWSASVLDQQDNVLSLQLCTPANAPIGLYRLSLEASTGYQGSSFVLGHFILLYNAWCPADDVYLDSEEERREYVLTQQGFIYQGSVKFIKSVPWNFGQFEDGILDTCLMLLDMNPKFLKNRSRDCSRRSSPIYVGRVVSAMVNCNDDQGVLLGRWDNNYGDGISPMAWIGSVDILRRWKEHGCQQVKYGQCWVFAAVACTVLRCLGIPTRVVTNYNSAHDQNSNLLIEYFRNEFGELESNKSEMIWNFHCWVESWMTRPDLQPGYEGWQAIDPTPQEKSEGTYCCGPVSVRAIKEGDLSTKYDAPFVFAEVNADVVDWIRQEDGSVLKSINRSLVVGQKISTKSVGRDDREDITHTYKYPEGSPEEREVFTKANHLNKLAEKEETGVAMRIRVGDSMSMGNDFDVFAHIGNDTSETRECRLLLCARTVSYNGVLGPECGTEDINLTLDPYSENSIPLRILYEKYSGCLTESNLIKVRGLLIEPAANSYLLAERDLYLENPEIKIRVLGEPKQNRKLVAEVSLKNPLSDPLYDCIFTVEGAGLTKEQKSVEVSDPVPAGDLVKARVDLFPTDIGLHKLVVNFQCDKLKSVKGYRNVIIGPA
Particulars: poly-I:C induced intestinal injury in mice; cited from earlier work.

Series [3] has as its system proinflammatory cytokines IL-6, PAI-1 and MIP1α. The experiment in a line: circulating proinflammatory cytokines in LPS-induced murine sepsis (ELISA). The format is in vivo, mice. Particulars: septic mice (LPS 5 mg/kg iv); 1.5 mg/kg ip level; plasma at 3 hours. The protocol:
FIG. 3: The TG2 inhibitor CK996 reduces the proinflammatory cytokine load in septic mice at doses as low as 1.5 mg/kg: The graphs display the absolute circulating levels of the proinflammatory cytokines IL-6, PAI-1 and MIP1α in septic male BL6 mice as a function of the dose of intraperitoneally administered CK996 or ERW1041E. In each graph, the right y-axis depicts the relative levels of the respective cytokines over their background level in our control cohort. All septic mice in this study received lipopolysaccharide (LPS, 5 mg/kg i.v., at t=0) and either a TG2 inhibitor (CK996 or ERW1041E at 50, 15, 5.0 and 1.5 mg/kg i.p., at t=0 and 60 min) in vehicle (PBS with 5% DMSO, 2% Tween-80 and 2.5% hydroxypropyl-beta-cyclodextrin) or, for the septic control cohort, vehicle alone. An additional cohort defining the baseline cytokine levels received only intravenous vehicle and intraperitoneal inhibitor vehicle, respectively. At 3 hours the mice were euthanized and plasma collected in lithium heparin tubes. The levels of the respective proinflammatory cytokines were quantified using commercial ELISA kits according to the manufacturers' instructions. […]
Having established that intraperitoneal administration of CK996 could suppress TG2 activity in septic mice, we next sought to determine whether this pharmacologic intervention had any effect on the circulating levels of the key proinflammatory cytokines in sepsis. To this end, we administered CK996 in doses of 1.5, 5.0, 15 or 50 mg/kg intraperitoneally to septic mice (5 mg/kg LPS, iv) and measured the level of the proinflammatory cytokines IL-6, PAI-1 and MIP1α in plasma that was collected at 3 hours after infusion of LPS.
We therefore co-administered recombinant human thioredoxin protein (10 mg/kg, ip) along with CK996 (50 mg/kg, ip) to septic mice (5 mg/kg, iv) and quantified the load of proinflammatory cytokines as above.
A general note: An ELISA detects its analyte on a solid surface through an enzyme-linked reagent.

In series [4] the target is T1, TG2. Particulars: cell culture; cited from earlier work.
For series [5], the target named is T2, TG2. Particulars: cited from earlier work.
The next series deals with T3, TG1 (Homo sapiens, UniProt P22735).
T3 sequence (P22735 1-817): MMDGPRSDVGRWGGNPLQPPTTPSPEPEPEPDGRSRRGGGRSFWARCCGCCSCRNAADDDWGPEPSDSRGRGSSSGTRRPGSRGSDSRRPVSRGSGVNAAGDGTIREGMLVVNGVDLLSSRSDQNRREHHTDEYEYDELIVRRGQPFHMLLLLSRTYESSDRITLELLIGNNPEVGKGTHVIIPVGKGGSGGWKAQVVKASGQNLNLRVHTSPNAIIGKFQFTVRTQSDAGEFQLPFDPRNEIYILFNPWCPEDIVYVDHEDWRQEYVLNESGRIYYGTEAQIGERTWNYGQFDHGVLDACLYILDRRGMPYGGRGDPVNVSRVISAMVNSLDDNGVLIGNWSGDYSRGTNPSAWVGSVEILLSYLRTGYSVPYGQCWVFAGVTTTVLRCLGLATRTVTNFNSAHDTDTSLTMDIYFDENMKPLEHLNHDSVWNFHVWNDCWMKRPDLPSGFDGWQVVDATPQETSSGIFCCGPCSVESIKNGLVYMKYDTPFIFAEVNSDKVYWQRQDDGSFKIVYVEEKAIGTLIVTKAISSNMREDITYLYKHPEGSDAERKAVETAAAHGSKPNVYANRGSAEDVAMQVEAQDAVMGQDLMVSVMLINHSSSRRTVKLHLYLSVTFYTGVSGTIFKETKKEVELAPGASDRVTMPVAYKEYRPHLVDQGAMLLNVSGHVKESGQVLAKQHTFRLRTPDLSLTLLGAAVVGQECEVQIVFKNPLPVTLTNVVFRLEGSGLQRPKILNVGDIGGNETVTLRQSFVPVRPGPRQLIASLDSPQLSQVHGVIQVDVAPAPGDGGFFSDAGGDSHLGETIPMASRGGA
Particulars: cited from earlier work.

The text below walks through data of US10010541B2, “Modulation of tissue transglutaminase activation in disease” (The Board of Trustees of the Leland Stanford Junior …, priority 2014, dated 2018).

SMILES strings stand for the structures. Like-named read-outs stand apart in the source and are kept apart here.

For `O=C(NC[C@@H]1CC(Br)=NO1)[C@@H]1CCCN1C(=O)OCc1cnc2ccccc2c1` [ERW1041E], at TG2 [1], the “potency as inhibitor of TG2” value is given as “moderately potent”. Further, the “catalytic activity of TG2” value on TG2 [2], on TG2 [4] and at TG2 [5] (hypoxia-induced murine pulmonary hypertension) was “capable of blocking the catalytic activity of TG2” each time. The “circulating levels of IL-6, PAI-1 and MIP1α” value in series [3] was “no effect”. Moreover, the tolerability entry at TG2 [5] (twice daily administration for several weeks) is recorded as “well tolerated”. For the same compound, the “potency against TG1 relative to TG2” value on TG1 is listed as “comparably potent”.
